This is an account of results in patent US20080199423A1, “Methods of Using Apo2l Receptor Agonists and Ink Cell Activators” (GENENTECH, INC., priority 2004, published 2008).

This test relates to cell surface Apo2L/TRAIL on NK cells. The test is described as follows: Flow cytometry of cell surface Apo2L/TRAIL on purified NK cells. The test is classed as cell-based, human. Particulars: 5C2-Alexa 488 staining. As for the experimental part:
Cell surface Apo2L/TRAIL on purified NK cells treated with poly(I:C), R-848 or hIL-2 (30 ng/ml, BD Biosciences) was also analyzed by cytometry. Isotype control (IgG2a, Sigma) and anti-Apo2L/TRAIL antibody (5C2) were labeled with Alexa 488 (Molecular Probes). 5×10^5 cells were incubated with 2 μg of human IgG to block FcRs and 1 μg of the directly labeled mAbs at 4° C. for 45 minutes, followed by 2 washes. Stained cells were analyzed using a FACScan cytometer (Becton Dickenson) and Cellquest software.
A general note: Flow cytometry measures light scatter and fluorescence of single cells or particles in a stream.

As to poly(I:C), the “Cell surface expression of Apo2L/TRAIL on NK cells” value is reported as “detectable cell surface expression”.
